≈ marks a conversion by molar mass, not a printed value.

7 molecules from publication PMC9571093, “Synthesis and Characterization of Novel Hydrazone Derivatives of Isonicotinic Hydrazide and Their Evaluation for Antibacterial and Cytotoxic Potential” (Molecules, 2022) can be followed below.

In data set [1] the test system is Bacillus subtilis ATCC 11774. As to the kind of experiment: Paper disc diffusion, zone of inhibition. It is filed as cell-based. The following applies: Bacillus subtilis, ATCC11774, 24 h, disc with 1000 µg mL−1 in DMSO, 37 °C. The method, then:
(§1) All the synthesized compounds were screened for antibacterial activities using minimum inhibitory concentrations (MIC) and zone of inhibitions against Gram (+)and Gram (−) bacterial strains. ATCC strains of the test microorganism selected for antibacterial assay were Gram-positive bacteria; Staphylococcus aureus ATCC 25923, Bacillus subtilus ATCC 11774, and Gram-negative bacteria; Escherichia coli ATCC 10536. The bacterial strains’ stock cultures were kept in Nutrient agar (Oxoid, UK) at 4 °C and inocula were prepared by transferring several single colonies of microbes to a sterile Mueller Hinton broth. The bacterial cell suspension was mixed until homogeneity to give a final density of 5 × 10^5 cfu/mL
(§2) Preliminary screenings of synthesized compounds were conducted on agar plates using the disc diffusion method. The plates were prepared using Mueller–Hinton agar following the autoclave process (121 °C for 30 min). After cooling, the plates were inoculated with the suspension of microorganisms (S. aureus, B. subtilis and E. coli). The paper discs impregnated with the test compounds (1000 µg mL^−1 in dimethyl sulfoxide) were placed on the solidified medium and incubated at 37 °C for 24 hours before recording the zone of inhibition in millimeters.
(A growth-free zone around the sample is the usual read-out of agar diffusion tests.)

In data set [2] the test system is Staphylococcus aureus ATCC 25923. As to the kind of experiment: Paper disc diffusion, zone of inhibition. It is filed as cell-based. The settings on record: disc with 1000 µg mL−1 in DMSO, 37 °C; for zone of inhibition at 1000 µg/mL: Staphylococcus aureus, ATCC25923, 24 h. As for the experimental part: as §1, §2
Data set [3] has as its system Escherichia coli ATCC 10536. As to the kind of experiment: Paper disc diffusion, zone of inhibition. The following applies: ATCC10536, disc with 1000 µg mL−1 in DMSO, 37 °C, 24 h. It is filed as cell-based. The method, then: as §1, §2
A further data set has as its system E. coli ATCC 10536. As to the kind of experiment: Tetrazolium (MTT) microplate assay of minimum inhibitory concentration. In kind it is cell-based. The settings on record: Escherichia coli, ATCC10536. The method, then: as §1
(§3) The minimum inhibitory concentrations of test microorganisms and reference material were determined using the tetrazolium microplate assay method. The assay was performed using a 96-well clear microtiter plate. Freshly harvested bacterial cell and fungal cell suspensions were seeded at 5 × 10^5 cfu/mL in each well of the 96-well plate. Different concentrations, 500 to 10 µg/mL, of the test compounds were diluted in series with Muller–Hinton broth. A volume of 200 µL of each concentration was added in triplicate to the wells and the plates were then incubated for 18–24 h at 37 °C ± 0.5. After incubation, in each well, 50 µL of 3-(4, 5-dimethylthiazol-2-yl)-2, 5-diphenyltetrazolium bromide MTT, having a concentration of 0.2 mg/mL, was added and the plate was incubated at 37 °C for 30 min. An appropriate solvent blank (DMSO) was included as the negative control and the bacterial suspension was included as the positive control. The absorbance was measured at 570 nm with a reference wavelength of 650 nm by adding DMSO using a spectrophotometer and the percentage reduction of the dye (indicating the bacterial growth inhibition) was calculated.

The test system of a further data set is B. subtilis ATCC 11774. Described as above. The settings on record: Bacillus subtilis, ATCC11774. In kind it is cell-based. As for the experimental part:
as §1, §3

For a further data set, the system named is S. aureus ATCC 25923. Described as above. In kind it is cell-based. The following applies: Staphylococcus aureus, ATCC25923. The method, then: as §1, §3
The subject of data set [4] is Artemia salina (brine shrimp) nauplii. As to the kind of experiment: Brine shrimp lethality bioassay. It is filed as in vivo. The settings on record: 24 h, concentration not given. The method, then: The cytotoxicities of synthesized hydrazones were recorded by employing an in vitro brine shrimp lethality bioassay technique. The eggs of Artemia salina (brine shrimp) were allowed to incubate at 30 °C for 48 h under a light and dark cycle using artificial sea water before subjecting them to the sample solutions. The hatched larvae (nauplii) were collected with using a Pasteur pipette and were transferred to freshly prepared sea water (commercial salt and double-distilled water). The stock solutions of each compound were prepared at 500 µg/mL concentration in DMSO and sea water at 1:1, and further serial dilutions of 25, 50, 100, 200 and 300 µg/mL were prepared using sea water. Using a 2mL volume from each dilution, sea water containing 10 nauplii was added to a test tube and incubated for 24 h. A solvent mixture with nauplii containing no test compound was used as the control. After due time, the number of nauplii that survived was determined using a magnifying glass. The experiment was performed in triplicate and the median lethal concentration (LC50) ± SEM was calculated using regression analysis.

With `NCC[C@H](O)C(=O)N[C@@H]1C[C@H](N)[C@@H](O[C@H]2O[C@H](CN)[C@@H](O)[C@H](O)[C@H]2O)[C@H](O)[C@H]1O[C@H]1O[C@H](CO)[C@@H](O)[C@H](N)[C@H]1O` [Amikacin, reference compound], the zone of inhibition (as a rule, the extent of the growth-free halo in a diffusion test) at 1000 µg/mL came to 30 mm in data set [1], 24 mm in data set [2] and 38 mm in data set [3].

For `CC1(C)S[C@@H]2[C@H](NC(=O)[C@H](N)c3ccc(O)cc3)C(=O)N2[C@H]1C(=O)O` [Amoxicillin, reference compound], in the data set on E. coli ATCC 10536, 25 µg/mL produced 40 ± 0.5% inhibition; the inhibition (in general, the drop in the measured response relative to a control, in per cent) at 50 µg/mL amounted to 66 ± 0.5%; the inhibition at 100 µg/mL came out at 85 ± 0.6%; at 200 µg/mL the inhibition was 96 ± 1%. The midpoint of inhibition with E. coli ATCC 10536 (E. coli, concentration inhibiting 66 ± 0.5%), the IC50, lay at 50 µg/mL (≈ 137 µM).

Regarding `CO/N=C(\C(=O)N[C@@H]1C(=O)N2C(C(=O)O)=C(CSc3nc(=O)c(=O)[nH]n3C)CS[C@H]12)c1csc(N)n1` [Ceftriaxone, reference compound], in the data set with B. subtilis ATCC 11774, the inhibition at 25 µg/mL worked out at 40 ± 0.5%, the inhibition at 50 µg/mL was 55 ± 0.7%, the inhibition at 100 µg/mL is 79 ± 1.2% and at 200 µg/mL the inhibition was 92 ± 1.2%. Besides, it took 50 µg/mL (≈ 90.2 µM) to reach half-maximal inhibition in the data set with B. subtilis ATCC 11774 (B. subtilis, concentration inhibiting 55 ± 0.7%) (IC50). In the data set on S. aureus ATCC 25923, this molecule showed an inhibition at 25 µg/mL of 30 ± 0.8%, an inhibition at 50 µg/mL of 55 ± 0.3%, an inhibition at 100 µg/mL of 80 ± 1.2% and an inhibition at 200 µg/mL of 96 ± 1%. The minimum inhibitory concentration with S. aureus ATCC 25923 (S. aureus, concentration inhibiting 55 ± 0.3%, read-out: IC50) was determined as 50 µg/mL (≈ 90.2 µM).

Molecule `COc1cc(/C=N/NC(=O)c2ccncc2)ccc1OCC(=O)OC(C)(C)C` [NH1, Tert-butyl (E)-2-(4-((2-Isonicotinoylhydrazineylidene)methyl)-2-methoxyphenoxy) Acetate] showed a zone of inhibition at 1000 µg/mL in data set [1] of 14 mm. This molecule also had a zone of inhibition at 1000 µg/mL in data set [2] of 24 mm. Also, in data set [2] (24 h), the “Zone of Inhibition” value came out at 20 mm. The molecule further had a zone of inhibition at 1000 µg/mL in data set [3] of 25 mm. In the data set with B. subtilis ATCC 11774, this molecule registered an inhibition at 50 µg/mL of 5 ± 0.3%, an inhibition at 100 µg/mL of 26 ± 0.3%, an inhibition at 200 µg/mL of 44 ± 0.4% and an inhibition at 300 µg/mL of 60 ± 0.5%. Further, in the data set with B. subtilis ATCC 11774, testing at 400 µg/mL gave an inhibition of 75 ± 0.5%. In the data set on E. coli ATCC 10536, this molecule showed an inhibition at 25 µg/mL of 9 ± 0.5%, an inhibition at 50 µg/mL of 18 ± 0.5%, an inhibition at 100 µg/mL of 40 ± 0.4% and an inhibition at 200 µg/mL of 60 ± 0.5%. Also, in the data set on E. coli ATCC 10536, the inhibition at 300 µg/mL was 79 ± 1%. In the data set on S. aureus ATCC 25923, this molecule came in with an inhibition at 50 µg/mL of 10 ± 0.6%, an inhibition at 100 µg/mL of 25 ± 0.7%, an inhibition at 200 µg/mL of 55 ± 1% and an inhibition at 300 µg/mL of 63 ± 1%. The same molecule yielded an inhibition at 400 µg/mL in the data set on S. aureus ATCC 25923 of 69 ± 2%. Moreover, 500 µg/mL produced 80 ± 1.5% inhibition in the data set on S. aureus ATCC 25923 (500 µg/mL).

In data set [1], `CC(C)(C)OC(=O)COc1ccc(/C=N/NC(=O)c2ccncc2)cc1` [NH2, Tert-butyl (E)-2-(4-((2-Isonicotinoylhydrazineylidene)methyl)phenoxy) Acetate] registered a zone of inhibition at 1000 µg/mL of 14 mm. The molecule also showed a zone of inhibition at 1000 µg/mL in data set [2] of 15 mm. For the same molecule, the zone of inhibition at 1000 µg/mL in data set [3] is 14 mm. In the data set on B. subtilis ATCC 11774, the inhibition at 25 µg/mL was found to be 4 ± 0.2%, the inhibition at 50 µg/mL worked out at 12 ± 0.3%, at 100 µg/mL the inhibition was 22 ± 0.3% and the inhibition at 200 µg/mL was determined as 44 ± 0.5%. In the data set on B. subtilis ATCC 11774, the inhibition at 300 µg/mL was determined as 60 ± 0.5% and 400 µg/mL produced 81 ± 0.6% inhibition. Further, in the data set with E. coli ATCC 10536, the inhibition at 100 µg/mL was 10 ± 0.3%, the inhibition at 200 µg/mL came to 25 ± 0.3% and 300 µg/mL produced 55 ± 0.5% inhibition. In the data set on E. coli ATCC 10536 (400 µg/mL), this molecule gave an inhibition at 400 µg/mL of 70 ± 0.3%. In the data set with S. aureus ATCC 25923, this molecule showed an inhibition at 25 µg/mL of 11 ± 1%, an inhibition at 50 µg/mL of 21 ± 1.2%, an inhibition at 100 µg/mL of 42 ± 2% and an inhibition at 200 µg/mL of 50 ± 2%. In the data set with S. aureus ATCC 25923, this molecule gave an inhibition at 300 µg/mL of 63 ± 1.5% and an inhibition at 400 µg/mL of 74 ± 2%.

`CC(C)=CCOc1ccc(/C=N/NC(=O)c2ccncc2)cc1` [NH4, (E)-N′-(4-((3-Methylbut-2-en-1-yl)oxy)benzylidene)isonicotinohydrazide] registered a zone of inhibition at 1000 µg/mL in data set [1] of 23 mm. The zone of inhibition at 1000 µg/mL in data set [2] is 20 mm. In data set [3], this molecule showed a zone of inhibition at 1000 µg/mL of 21 mm. In the data set with B. subtilis ATCC 11774, this molecule gave an inhibition at 25 µg/mL of 10 ± 0.7%, an inhibition at 50 µg/mL of 18 ± 0.6%, an inhibition at 100 µg/mL of 29 ± 0.8% and an inhibition at 200 µg/mL of 50 ± 1.1%. Besides, in the data set on B. subtilis ATCC 11774, the inhibition at 300 µg/mL amounted to 68 ± 1% and the inhibition at 400 µg/mL is 77 ± 0.8%. Also, in the data set with E. coli ATCC 10536, at 50 µg/mL the inhibition was 5 ± 0.5%, the inhibition at 100 µg/mL is 25 ± 0.5%, the inhibition at 200 µg/mL was found to be 54 ± 0.4% and the inhibition at 300 µg/mL was 75 ± 0.8%. For the same molecule, in the data set with S. aureus ATCC 25923, testing at 25 µg/mL gave an inhibition of 16 ± 0.5%, the inhibition at 50 µg/mL is 24 ± 1%, the inhibition at 100 µg/mL came out at 38 ± 1.5% and the inhibition at 200 µg/mL was determined as 55 ± 0.9%. In the data set on S. aureus ATCC 25923, this molecule yielded an inhibition at 300 µg/mL of 71 ± 2% and an inhibition at 400 µg/mL of 89 ± 1.5%.

`CCCOc1ccc(/C=N/NC(=O)c2ccncc2)cc1OC` [NH5, (E)-N′-(3-Methoxy-4-propoxybenzylidene) isonicotinohydrazide] returned a minimum survival percentage in data set [4] of 36.10 ± 3.45%. For the same molecule, the figures for the zone of inhibition at 1000 µg/mL in data set [1], in data set [2] and in data set [3] were 25 mm, 22 mm and 24 mm, respectively. In addition, the inhibition at 50 µg/mL was determined as 10 ± 0.5% with B. subtilis ATCC 11774, 18 ± 0.6% in the data set with E. coli ATCC 10536 and 12 ± 0.4% with S. aureus ATCC 25923. The values for the inhibition at 100 µg/mL in the data set on B. subtilis ATCC 11774, in the data set on E. coli ATCC 10536 and with S. aureus ATCC 25923 were 26 ± 0.5%, 34 ± 0.3% and 35 ± 0.7%, respectively. Also, the figures for the inhibition at 200 µg/mL in the data set on B. subtilis ATCC 11774, in the data set with E. coli ATCC 10536 and in the data set with S. aureus ATCC 25923 were 53 ± 0.6%, 58 ± 0.6% and 58 ± 1.1%, respectively. Besides, the inhibition at 300 µg/mL with B. subtilis ATCC 11774 is 73 ± 0.8%; in the data set with E. coli ATCC 10536, 79 ± 0.8%; with S. aureus ATCC 25923, 77 ± 1.5%. The results for the inhibition at 25 µg/mL in the data set on E. coli ATCC 10536 and with S. aureus ATCC 25923 were 10 ± 0.6% and 5 ± 0.4%, respectively.
